Tested on: Culex nigripalpus
Experiment: Field test, mosquito landing counts on human subject in open area surrounded by linalool dispensers
Assay type: in vivo
Experimental: In a further test of the inhibiting ability of the compounds of this invention, the following field test was conducted using linalool as the inhibiting compound. The study was conducted on a site adjacent to a wooded wetland breeding area in Sarasota, Fla. A trap baited with 200 ml/min CO2, equivalent to the respiration of a 91 kg (200 lb) man, ran continuously each night as an experimental control. The trap collections were first used to count the mosquito population and were then examine to identify the species present. The mosquito population was about 91% Culex nigripalpus, the St. Louis encephalitis vector in Florida.
The experimental design was a 2×2 Latin Square. Tests were conducted in two open areas 24 meters (80 feet) apart labeled Locations 1 and 2. Each area was 2.4 meters×2.4 meters (8 ft×8 ft), i.e., 5.76 m^2 (64 ft^2). Wooden poles 1.38 meters (4.5 feet) high and having inhibiting compound dispensers thereon were driven into the ground at the corners of the square area. On alternate nights, one area was unprotected by inhibiting compound while the other area had inhibiting compound dispensed from the dispenser. In operation, the dispenser emitted linalool inhibitor having 95% active ingredient at a rate of 20 mg/hr to 40 mg/hr.
Landing counts were taken from the arms, legs and torso of a test subject known to be moderately attractive to mosquitoes who was seated in the center of the square area. At 15-minute intervals over a period of 2 to 3 hours during peak mosquito activity, the subject changed position, alternating between Locations 1 and 2. […] Mosquitoes were killed to prevent double counting.
On some cue, they emerge en masse from the wooded wetland and fan out in a radial direction foraging for blood hosts. The period of peak activity is evidenced by a sharp increase in landing counts followed by a sharp decrease as the wave of outbound mosquitoes passes the test location. This behavior introduces two variables that must be taken into account. The first affects the experimental design and the second affects the interpretation of the results. […]

C=CC(C)(O)CCC=C(C)C (stereo not drawn) [Linalool, linalool]
reduction of mosquito landing counts, average (average over the three trials, linalool dispensed at 20 mg/hr to 40 mg/hr, human subject, 64 ft^2 area): 53%
reduction of landings (morning trial (7:00 AM to 9:00 AM) when mosquito activity was light): 73%
landings on human subject (subject surrounded by linalool dispensed from the dispensers (unprotected: 286 landings)): 135 landings

— patent publication US7807721B2, “Compositions for inhibiting the scent tracking ability of mosquitoes in environmentally defined three dimensional spaces” (Biosensory Inc., priority 1999, dated 2010)
